Test results taken from patent US4129737A, “Process for the preparation of an 8-alkyl-5-oxo-5,8-dihydro-pyrido(2,3-d)pyrimidine-6-carboxylic acid” (priority 1972, dated 1978).
In brackets after ≈: the same amount, converted by molar mass. Where two headings read alike, the source gives them in different places.

Legend:
Esch 111 B4 = assay: Average MIC, solid medium (nutrient agar) dilution method; format: cell-based; settings: 18 h, average of five determinations, read-out: minimum inhibitory concentration, average
Salm. typhi 0901 = assay: as above; format: cell-based; settings: Salmonella enterica, 18 h, read-out: minimum inhibitory concentration, average
Sh. sonnei I.P.S. = assay: as above; format: cell-based; settings: Shigella sonnei, 18 h, average of five determinations, read-out: minimum inhibitory concentration, average
Staphylococcus 209P = assay: as above; settings: 18 h, read-out: minimum inhibitory concentration, average
Staphylococcus 9144 = assay: as above; settings: Staphylococcus, 9144, 18 h, read-out: minimum inhibitory concentration, average
Staphylococcus SIM = assay: as above; settings: 18 h, read-out: minimum inhibitory concentration, average
Streptococcus A561 = assay: as above; settings: A561, 18 h, read-out: minimum inhibitory concentration, average
Streptococcus DM19 = assay: as above; settings: DM19, 18 h, read-out: minimum inhibitory concentration, average
B. subtilis 6633 = assay: as above; settings: Bacillus subtilis, 6633, 18 h, read-out: minimum inhibitory concentration, average
Bord. bronch. 4617 = assay: as above; settings: 18 h, read-out: minimum inhibitory concentration, average
Ps. aeruginosa A22 = assay: as above; settings: Pseudomonas aeruginosa, A22, 18 h, read-out: minimum inhibitory concentration, average
Ps. aeruginosa 72-345 = assay: as above; settings: Pseudomonas aeruginosa, 72345, 18 h, read-out: minimum inhibitory concentration, average
Esch. coli. 95 I.S.M. = assay: as above; settings: Escherichia coli, 18 h, read-out: minimum inhibitory concentration, average
Esch. coli. 54-127 OMS = assay: as above; settings: Escherichia coli, 18 h, read-out: minimum inhibitory concentration, average
Esch. coli. LRB 45 = assay: as above; settings: Escherichia coli, 18 h, read-out: minimum inhibitory concentration, average
Esch. coli. LRB 67 = assay: as above; settings: Escherichia coli, 18 h, read-out: minimum inhibitory concentration, average
Esch. coli. Cho = assay: as above; settings: Escherichia coli, 18 h, read-out: minimum inhibitory concentration, average
Klebs. pneumoniae 10.031 = assay: as above; settings: Klebsiella pneumoniae, 10.031, 18 h, read-out: minimum inhibitory concentration, average
S. enteritidis DANYZ = assay: as above; settings: Salmonella enterica, 18 h, read-out: minimum inhibitory concentration, average
S. oranienburg 10-66 = assay: as above; settings: Salmonella enterica, 1066, 18 h, read-out: minimum inhibitory concentration, average
Arizona 6211 = assay: as above; settings: 18 h, read-out: minimum inhibitory concentration, average
Providencia 0223 = assay: as above; settings: Providencia, 0223, 18 h, read-out: minimum inhibitory concentration, average
Pr. vulgaris 12-53 = assay: as above; settings: Proteus vulgaris, 1253, 18 h, read-out: minimum inhibitory concentration, average
Pr. mirabilis Nig = assay: as above; settings: Proteus mirabilis, 18 h, read-out: minimum inhibitory concentration, average
Pr. morganii A 236 = assay: as above; settings: Morganella morganii, A236, 18 h, read-out: minimum inhibitory concentration, average
Staphylococcus 209 P = assay: Minimum inhibitory concentration by agar dilution, Staphylococcus 209 P; format: cell-based; settings: Staphylococcus, 37° C., 18 hours, read-out: minimum inhibitory concentration (M.I.C.)
Method: (§1) (a) Trypticase soya medium (T.S.A.), which is very suitable for culturing the majority of microorganisms; it has the following composition:
(§2) (b) Ordinarily nutrient agar (N.A.), which is less rich in nutrients, corresponds to the following formulation: […]
(§3) Table I gives the minimum inhibitory concentrations (expressed in μg/cm^3) for the various microorganisms tested on each medium.
(§4) The products were tested on three Gram positive microorganisms (1 to 3) […] and on 10 Gram negative microorganisms (4 to 13).
(§5) Table (II) gives the minimum inhibitory concentrations of the compounds of Examples XII to XVI, determined on the agar medium, N.A., and expressed in μg/cm^3.

Streptococcus = assay: Minimum inhibitory concentration by agar dilution, Streptococcus Group A; format: cell-based; settings: 37° C., 18 hours, read-out: minimum inhibitory concentration (M.I.C.)
Method: as §1, §2, §3, §4, §5

B. subtilis = assay: Minimum inhibitory concentration by agar dilution, B. subtilis; format: cell-based; settings: Bacillus subtilis, 37° C., 18 hours, read-out: minimum inhibitory concentration (M.I.C.)
Method: as §1, §2, §3, §4, §5

Bord. bronchiseptica = assay: Minimum inhibitory concentration by agar dilution, Bord. bronchiseptica; format: cell-based; settings: Bordetella bronchiseptica, 37° C., 18 hours, read-out: minimum inhibitory concentration (M.I.C.)
Method: as §1, §2, §3, §4, §5

B. pyocyaneus A22 = assay: Minimum inhibitory concentration by agar dilution, B. pyocyaneus A22; format: cell-based; settings: Pseudomonas aeruginosa, A22, 37° C., 18 hours, read-out: minimum inhibitory concentration (M.I.C.)
Method: as §1, §2, §3, §4, §5

B. pyocyaneus TUR = assay: Minimum inhibitory concentration by agar dilution, B. pyocyaneus TUR; format: cell-based; settings: Pseudomonas aeruginosa, 37° C., 18 hours
Method: as §1, §2, §3, §4

Esch. Coli 95 = assay: Minimum inhibitory concentration by agar dilution, Esch. Coli 95; format: cell-based; settings: Escherichia coli
Method: as §1, §2, §3, §4, §5

Klebs. pneumoniae = assay: Minimum inhibitory concentration by agar dilution, Klebs. pneumoniae; format: cell-based; settings: Klebsiella pneumoniae, 37° C., 18 hours, read-out: minimum inhibitory concentration (M.I.C.)
Method: as §1, §2, §3, §4, §5

Salm. typhi = assay: Minimum inhibitory concentration by agar dilution, Salm. typhi; format: cell-based; settings: Salmonella enterica, 18 h
Method: as §1, §2, §3, §4, §5

Sh. sonnei = assay: Minimum inhibitory concentration by agar dilution, Sh. sonnei; format: cell-based; settings: Shigella sonnei, 37° C., 18 hours, read-out: minimum inhibitory concentration (M.I.C.)
Method: as §1, §2, §3, §4, §5

Pr. vulgaris = assay: Minimum inhibitory concentration by agar dilution, Pr. vulgaris; format: cell-based; settings: Proteus vulgaris
Method: as §1, §2, §3, §4, §5

Pr. mirabilis = assay: Minimum inhibitory concentration by agar dilution, Pr. mirabilis; format: cell-based; settings: Proteus mirabilis, 37° C., 18 hours, read-out: minimum inhibitory concentration (M.I.C.)
Method: as §1, §2, §3, §4, §5

Pr. morganii = assay: Minimum inhibitory concentration by agar dilution, Pr. morganii; format: cell-based; settings: Morganella morganii
Method: as §1, §2, §3, §4, §5

[1] = tested on: Gram-negative microorganisms; assay: In vitro anti-microbial activity on agar media, overall; format: cell-based; settings: in vitro
Method: as §4

[2] = N.A. (nutrient agar, pH 6.8), Table I
[3] = T.S.A. (trypticase soya medium, pH 7.3)
[4] = 18 h, pH 7.3, read-out: minimum inhibitory concentration (M.I.C.)
[5] = N.A. (nutrient agar, pH 6.8), 37° C., 18 hours, Table I, read-out: minimum inhibitory concentration (M.I.C.)

CCn1cc(C(=O)O)c(=O)c2cnc(N3CCCC3)nc21 [Example III, 2-Pyrrolidino-5-oxo-8-ethyl-5,8-dihydro-pyrido(2,3-d)-pyrimidine-6-carboxylic acid]
MIC (Esch 111 B4): 15.6 µg/mL (≈ 54.2 µM)
MIC (Salm. typhi 0901): 23.7 µg/mL (≈ 82.3 µM)
MIC (Sh. sonnei I.P.S.): 10.6 µg/mL (≈ 36.8 µM)
MIC (Staphylococcus 209P): 3.42 µg/mL (≈ 11.9 µM)
MIC (Staphylococcus 9144): 4.04 µg/mL (≈ 14 µM)
MIC (Staphylococcus SIM): 15 µg/mL (≈ 52 µM)
MIC (Streptococcus A561): 2.82 µg/mL (≈ 9.78 µM)
MIC (Streptococcus DM19): 100 µg/mL (≈ 347 µM)
MIC (B. subtilis 6633): 1 µg/mL (≈ 3.47 µM)
MIC (Bord. bronch. 4617): 80 µg/mL (≈ 277 µM)
MIC (Ps. aeruginosa A22): 100 µg/mL (≈ 347 µM)
MIC (Ps. aeruginosa 72-345): 75 µg/mL (≈ 260 µM)
MIC (Esch. coli. 95 I.S.M.): 32.5 µg/mL (≈ 113 µM)
MIC (Esch. coli. 54-127 OMS): 15.6 µg/mL (≈ 54.2 µM)
MIC (Esch. coli. LRB 45): 15.6 µg/mL (≈ 54.2 µM)
MIC (Esch. coli. LRB 67): 12.5 µg/mL (≈ 43.4 µM)
MIC (Esch. coli. Cho): 32.5 µg/mL (≈ 113 µM)
MIC (Klebs. pneumoniae 10.031): 1.2 µg/mL (≈ 4.16 µM)
MIC (S. enteritidis DANYZ): 21.9 µg/mL (≈ 76 µM)
MIC (S. oranienburg 10-66): 100 µg/mL (≈ 347 µM)
MIC (Arizona 6211): 27.5 µg/mL (≈ 95.4 µM)
MIC (Providencia 0223): 100 µg/mL (≈ 347 µM)
MIC (Pr. vulgaris 12-53): 5.6 µg/mL (≈ 19.4 µM)
MIC (Pr. mirabilis Nig): 30 µg/mL (≈ 104 µM)
MIC (Pr. morganii A 236): 0.56 µg/mL (≈ 1.94 µM)

CCn1cc(C(=O)O)c(=O)c2ccc(C)nc21 [Nalidixic acid, nalidixic acid, reference compound]
MIC (Esch 111 B4): 2.34 µg/mL (≈ 10.1 µM)
MIC (Salm. typhi 0901): 2.7 µg/mL (≈ 11.6 µM)
MIC (Sh. sonnei I.P.S.): 1.58 µg/mL (≈ 6.8 µM)
MIC (Staphylococcus 209P): 16.2 µg/mL (≈ 69.9 µM)
MIC (Staphylococcus 9144): 25 µg/mL (≈ 108 µM)
MIC (Staphylococcus SIM): 56.2 µg/mL (≈ 242 µM)
MIC (Streptococcus A561): 18.7 µg/mL (≈ 80.7 µM)
MIC (Streptococcus DM19): 100 µg/mL (≈ 431 µM)
MIC (B. subtilis 6633): 72 µg/mL (≈ 310 µM)
MIC (Bord. bronch. 4617): 25 µg/mL (≈ 108 µM)
MIC (Ps. aeruginosa A22): 60 µg/mL (≈ 258 µM)
MIC (Ps. aeruginosa 72-345): 60 µg/mL (≈ 258 µM)
MIC (Esch. coli. 95 I.S.M.): 21.9 µg/mL (≈ 94.2 µM)
MIC (Esch. coli. 54-127 OMS): 2.15 µg/mL (≈ 9.26 µM)
MIC (Esch. coli. LRB 45): 3.1 µg/mL (≈ 13.3 µM)
MIC (Esch. coli. LRB 67): 2.7 µg/mL (≈ 11.6 µM)
MIC (Esch. coli. Cho): 4.04 µg/mL (≈ 17.4 µM)
MIC (Klebs. pneumoniae 10.031): 1.4 µg/mL (≈ 6.03 µM)
MIC (S. enteritidis DANYZ): 2.75 µg/mL (≈ 11.8 µM)
MIC (S. oranienburg 10-66): 100 µg/mL (≈ 431 µM)
MIC (Arizona 6211): 3.12 µg/mL (≈ 13.4 µM)
MIC (Providencia 0223): 100 µg/mL (≈ 431 µM)
MIC (Pr. vulgaris 12-53): 0.88 µg/mL (≈ 3.79 µM)
MIC (Pr. mirabilis Nig): 3.42 µg/mL (≈ 14.7 µM)
MIC (Pr. morganii A 236): 0.36 µg/mL (≈ 1.55 µM)

CCn1cc(C(=O)O)c(=O)c2cnc(N3CCN(Cc4ccccc4)CC3)nc21 [Example VII, 2-(4'-Benzyl-piperazino)-5-oxo-8-ethyl-5,8-dihydropyrido(2,3-d)pyrimidine-6-carboxylic acid]
MIC (Staphylococcus 209 P; [2]): 0.8 µg/mL (≈ 2.03 µM)
MIC (Staphylococcus 209 P; [3]): 3.1 µg/mL (≈ 7.88 µM)
MIC (Streptococcus; [2]): 0.8 µg/mL (≈ 2.03 µM)
MIC (Streptococcus; [3]): 3.1 µg/mL (≈ 7.88 µM)
MIC (B. subtilis; [2]): 0.4 µg/mL (≈ 1.02 µM)
MIC (B. subtilis; [3]): 0.8 µg/mL (≈ 2.03 µM)
MIC (Bord. bronchiseptica; [2]): 3.1 µg/mL (≈ 7.88 µM)
MIC (Bord. bronchiseptica; [3]): > 100 µg/mL
MIC (B. pyocyaneus A22; [2]): 100 µg/mL (≈ 254 µM)
MIC (B. pyocyaneus A22; [3]): > 100 µg/mL
MIC (B. pyocyaneus TUR; [2]): 100 µg/mL (≈ 254 µM)
MIC (B. pyocyaneus TUR; T.S.A. (trypticase soya medium, pH 7.3), read-out: minimum inhibitory concentration (M.I.C.)): > 100 µg/mL
MIC (Esch. Coli 95; [4]): 12.5 µg/mL (≈ 31.8 µM)
MIC (Esch. Coli 95; [5]): 1.6 µg/mL (≈ 4.07 µM)
MIC (Klebs. pneumoniae; [2]): 0.4 µg/mL (≈ 1.02 µM)
MIC (Klebs. pneumoniae; [3]): 1.6 µg/mL (≈ 4.07 µM)
MIC (Salm. typhi; pH 6.8, read-out: minimum inhibitory concentration (M.I.C.)): 1.6 µg/mL (≈ 4.07 µM)
MIC (Salm. typhi; pH 7.3, read-out: minimum inhibitory concentration (M.I.C.)): 12.5 µg/mL (≈ 31.8 µM)
MIC (Sh. sonnei; [2]): 1.6 µg/mL (≈ 4.07 µM)
MIC (Sh. sonnei; [3]): 12.5 µg/mL (≈ 31.8 µM)
MIC (Pr. vulgaris; 18 h, pH 6.8, read-out: minimum inhibitory concentration (M.I.C.)): 12.5 µg/mL (≈ 31.8 µM)
MIC (Pr. vulgaris; T.S.A. (trypticase soya medium, pH 7.3), 37° C., 18 hours, read-out: minimum inhibitory concentration (M.I.C.)): 50 µg/mL (≈ 127 µM)
MIC (Pr. mirabilis; [2]): 6.2 µg/mL (≈ 15.8 µM)
MIC (Pr. mirabilis; [3]): 100 µg/mL (≈ 254 µM)
MIC (Pr. morganii; [4]): 12.5 µg/mL (≈ 31.8 µM)
MIC (Pr. morganii; [5]): 3.1 µg/mL (≈ 7.88 µM)
activity against Gram-negative microorganisms [1]: particularly active against Gram-negative microorganisms
